From patent publication US11357786B2, “Synthetic disugar hydrocarbons as natural analogs to control microbial behaviors” (Syracuse University, priority 2014, dated 2022)

How the values were obtained:
Format in all cases: cell-based, Pseudomonas aeruginosa
PAO1-EGFP biofilm = assay: Biofilm on steel coupons, fluorescence / CLSM; details: 160 μM, 24 h, LB media
Experimental: A crystal violet (CV) assay was used to measure the amount of PAO1 biofilm formed after 24 h of bacterial inoculation. The fluorescence of green fluorescent proteins (GFP) expressed by PAO1-GFP was measured to directly quantify bacterial adhesion on polystyrene black 96 well plates with and without maltose derivatives after 2 h of bacterial inoculation. To evaluate the potential of maltose derivatives as both anti-biofilm and anti-adhesion agents, they were compared to a brominated furanone (BF8) known to inhibit biofilm formation, and two generic surfactants, sodium dodecyl sulfate (SDS) and tetra (ethylene glycol) monododecyl ether (C12EG4OH). […] P. aeruginosa strain PAO1-EGFP that constitutively producing green fluorescent protein was allowed to form biofilm on sterile steel coupons.
Confocal laser scanning microscopy (CLSM) based biofilm inhibition assay. Steel coupons (˜1×1 cm) were washed with EtOH, dried under a stream of nitrogen and then sterilized in an autoclave. Overnight culture of PAO1/EGFP (OD600 ˜1.0) grown in LB media (supplemented with 300 μg/mL of carbenicillin), was sub-cultured to OD600˜0.01 and then the OD600 was allowed to reach ˜0.1. Aliquot (600 μL) of PAO1/EGFP subculture OD600˜0.1 was then added into the wells of a 24-well micro titer plate. DSHs were then introduced into the assigned wells to reach a resultant concentration of 160 μM. Bacterial sub-culture with no agent served as positive control. Sterile steel coupons were then placed into the wells and the plates were wrapped with saran wrap and incubated for 24 h at 37° C. under static conditions. After 24 hours, the steel coupons were removed and washed by dipping in PBS buffer (2 washes) and the dried by holding with a forcep and gently dabbing the edge on a bleached paper (KIM wipes). The dried steel coupons were viewed under confocal laser scanning microscope (CLSM). Images were taken at 4 random locations on each steel coupons. Z-stacked images were also taken to determine the relative thickness of the biofilm.

[1] = system: rhl quorum sensing system; assay: rhl quorum sensing gene reporter assay (prhlI-LVAgfp); details: natural autoinducers present
Excerpt: (§1) The ability of the maltoside derivatives to antagonize the two quorum sensing circuits las and/or rhl of P. aeruginosa was investigated by using two reporter strains (PAO1/plasI-LVAgfp, PAO1/prhlI-LVAgfp). These reporter strains produce natural AHL signals, and binding of such signal molecules to the Lux-type receptor proteins ([…]) activates the expression of green fluorescent protein (GFP) encoded by the plasmid.
(§2) One of the recent approach for a nonmicrobicidal control of biofilm aims to develop agents that disrupt bacterial cell-to-cell communication by acting as mimics to the natural molecules (autoinducer) that bind […], which are encoded by las and rhl gene. The binding of these mimics with lasR and rhlR proteins either activates or represses the expression of lasI or rhlI.^6 In gene reporter assay, the expression of lasI and rhlI proteins is quantified by measuring expression of green fluorescent protein (GFP) fused to lasI and rhlI genes.^5 Two reporter strains of Pseudomonas aeruginosa (PAO1/plasI_LVAgfp and PAO1/prhlI_LVAgfp) express green fluorescence protein on activation of las or rhl quorum sensing system. The activation or repression of las or rhl quorum sensing system in PA was tested by various DSHs.
(§3) Strains PAO1/plasI-LVAgfp and PAO1/prhlI-LVAgfp were grown overnight in LB-media that was supplemented with 300 μg/mL carbenicillin and after 16 hours, the bacteria were sub cultured in LB media (supplemented with 300 μg/mL carbenicillin) to OD600 as 0.01. The OD600 was allowed to reach 0.1 and then 200 μL of culture was aliquoted into the wells of 96-well microtiter plate. DSHs were then added to assigned wells at two different concentrations (85 μM and 160 μM). No agent was added to the well for positive control. The plates then incubated at 37° C. for 24 h in a rotary shaking incubator (250 rpm). The culture from each well was then transferred to corresponding wells of a black walled flat-bottom, 96-well plate (μClear, Greiner-One 655096). The fluorescence and OD absorbance in each well was measured by Synergy 2 multi-mode microplate reader with aGen5 data analysis software. […] Fluorescence was measured at an excitation wavelength of 500 nm and an emission wavelength of 540 nm.
(§4) For an antagonist assay, overnight culture of P. aeruginosa PAO1/plasI-LVAgfp (las system) or PAO1/prhlI-LVAgfp (rhl system) in LB broth (supplemented with 300 μg/mL carbenicillin) was grown from a single colony on a LB agar plate supplemented with 300 μg/mL carbenicillin. […] The fluorescence and OD absorbance in each well was measured by Synergy 2 multi-mode microplate reader with Gen5 data analysis software. […] Fluorescence was measured at an excitation wavelength of 500 nm and an emission wavelength of 540 nm. […]

[2] = system: las quorum sensing system; assay: las quorum sensing gene reporter assay (plasI-LVAgfp); details: natural autoinducers present
Excerpt: as §1, §2, §3, §4

Row | SMILES | PAO1-EGFP biofilm on stainless steel coupons (CLSM) (PAO1-EGFP biofilm) | Change of GFP fluorescence, rhl reporter strain PAO1/prhlI-LVAgfp (antagonist assay) [1] | Change of GFP fluorescence, rhl reporter strain PAO1/prhlI-LVAgfp (antagonist assay) ([1]; listed as 12: SFβC) | Change of GFP fluorescence, las reporter strain PAO1/plasI-LVAgfp (antagonist assay) [2] | Change of GFP fluorescence, las reporter strain PAO1/plasI-LVAgfp (antagonist assay) ([2]; listed as 12: SFβC) | Change of GFP fluorescence, rhl reporter strain PAO1/prhlI-LVAgfp (antagonist assay) ([1]; listed as 13: SFαC) | Change of GFP fluorescence, las reporter strain PAO1/plasI-LVAgfp (antagonist assay) ([2]; listed as 13: SFαC)
1 | CC(C)CCCC(C)CCCC(C)CCO[C@@H]1O[C@H](CO)[C@@H](O[C@@H]2O[C@H](CO)[C@@H](O)[C@H](O)[C@H]2O)[C@H](O)[C@H]1O (stereo partly drawn) [SFβC (12), saturated famesyl-β-cellobioside] | decreased the fluorescence signal significantly | neither SFβC (12) nor SFαC (13) caused a significant change in the fluorescence | no significant change in the fluorescence | neither SFβC (12) nor SFαC (13) caused a significant change in the fluorescence | no significant change in the fluorescence |  | 
2 | CC(C)CCCC(C)CCCC(C)CCO[C@H]1O[C@H](CO)[C@@H](O[C@@H]2O[C@H](CO)[C@@H](O)[C@H](O)[C@H]2O)[C@H](O)[C@H]1O (stereo partly drawn) [SFαC (13), saturated farnesyl-α-cellobioside] | decreased the fluorescence signal significantly | neither SFβC (12) nor SFαC (13) caused a significant change in the fluorescence |  | neither SFβC (12) nor SFαC (13) caused a significant change in the fluorescence |  | no significant change in the fluorescence | no significant change in the fluorescence
